Values of other authors as cited in patent US6045822A, “Liposome preparations of indolocarbazole derivatives description” (Kyowa Hakko Kogyo Co., Ltd., priority 1996, dated 2000).

Key:
protein kinase C = details: in words; J. Antibiotics., 40, 1782 (1987)
[1] = in words; Cancer Res., 51, 4888 (1991)

Q: Which results are given for `CNC1CC2OC(C)(C1OC)n1c3ccccc3c3c4c(c5c6ccccc6n2c5c31)C(=O)NC4O` (centres unmarked) [UCN-01]?
A: protein kinase C inhibitory activity (protein kinase C): has protein kinase C inhibitory activity; anti-tumor activity [1]: has anti-tumor activity
